The subject of this assay is Patients diagnosed with Alzheimer's Disease. Briefly: ADCS/ADL scale (Activities of Daily Living). In kind it is in vivo, human. The source says: Subjects in the Placebo group received 21 weeks (5 months) of placebo medication.
The ADCS/ADL scale is a 23-item informant-based assessment scale measuring widely applicable daily activities appropriate for patients in the mild to moderate category of Alzheimer's Disease. The 23 items were selected for measurement from the larger set of 45 items studied by Galasko et al (Alzheimer Disease and Associated Disorders, Vol 11, Suppl. 2, 1997). These individual items were scored from 0-3 to […], depending on the question, with a possible total score of 78. A higher score indicated a higher functioning patient.
The items and scoring were as follows: • Eating (0-3) • Walking (0-3) • Toileting (0-3) • Bathing (0-3) • Grooming (0-3) • Dressing • selection of clothes (0-3) • physical performance (0-4) • Telephone (0-5) • Television (0-3) • Conversation (0-3) • Dishes (0-3) • Managing personal belongings (0-3) • Obtaining beverages (0-3) • Making a meal or snack (0-4) • Disposal of garbage (0-3) • Travel outside home (0-4) • Shopping (0-4) • Keeping appointments (0-3) • Ability to be left alone (0-3) • Current events (0-3) • Reading (0-2) • Writing (0-3) • Hobbies (0-3) • Household appliances (0-4)
An additional secondary indication captures overall changes in Activities of daily Living (ADL) performances as measured by the Alzheimer's Disease Cooperative Study Activities of Daily Living (ACDS/ADL) scale. As mentioned above this scale is comprised of 23 items that have been tested and validated in patients with mild to moderately severe Alzheimer's disease.

Consider 1 compound from patent US20060172993A1 (priority 2002, published 2006).

Molecules are shown by their SMILES.

For the compound `COc1ccc2c3c1O[C@H]1C[C@@H](O)C=C[C@@]31CCN(C)C2` [GAL, galantamine], the “Change in Total ADL score from baseline at Month 5, Mean” value is, setting by setting: (8 mg/day, LOCF) −3.2; (8 mg/day, observed case) −3.1; (16 mg/day, LOCF) −0.7; (16 mg/day, observed case) −0.5; (24 mg/day, LOCF) −1.5; (24 mg/day, observed case) −1.6.
